According to patent US9427442B2, “Fluoroalkyl and fluorocycloalkyl 1,4-benzodiazepinone compounds” (BRISTOL-MYERS SQUIBB COMPANY, priority 2012, dated 2016):

Legend:
[1] = system: human Notch 1; test: Notch-CBF1 Transactivation Assay (Notch 1); type: cell-based; details: read-out: Notch 1 (IC50); HeLa cells transfected with truncated Notch 1 and CBF1 luciferase reporter; 18 hours; average of N experiments
Source text: (§1) Notch-CBF1 Transactivation Assay
(§2) The Notch-CBF1 (C-promoter binding factor I) cell based transactivation assay is based on the ability of the released Notch intracellular domain fragments (NICDs) to function as transcription factors in conjunction with CBF1 and other nuclear factors. Luciferase assays were used to measure the antagonism of Notch-CBF1 transcriptional activity. HeLa cervical cancer cells are transiently co-transfected with pCDNA3.1/Hygro plasmids containing truncated Notch 1, Notch 2, Notch 3, or Notch 4 receptors and a PGL3 luciferase reporter vector containing 4 copies of CBF1 binding site. The cells were then tested for Notch-CBF1 activity in the absence or presence of test compounds. HeLa cells, maintained in DMEM (high glucose with HEPES), 1× glutamine/penicillin/streptomycin and 10% Fetal Bovine serum, were transiently transfected in a T175 Flask (4.5×10^6 cells/flask) using the Monster Transfection Kit (Minis #MIR2906) according to manufacturers specifications. Table 5 denotes respective DNA quantity for the transfections.
(§3) Assay media (5 μL) containing test compounds in final concentrations ranging from 5 μM to 8.4×10^−5 μM (3 fold serial dilutions) were added to the cells and the cell plates were then incubated for 18 hours at 37° C. and 5% CO2. Control wells contained DMSO vehicle (total counts) or 0.5 μM of an in-house small molecule inhibitor (background counts). Duplicates were used for each sample. Luciferase activity was measured after a 20-minute incubation with 50 μl STEADY-GLO® luciferase reagents according to manufacturer's specifications (Promega, Cat. #E2550) and analyzed by Envision plate reader (PerkinElmer, Boston, Mass.).
(§4) The antagonist effect of compounds was expressed as 100×[1−(average sample−average background)/(average total−average background)] where sample is the luciferase activity in the presence of test compound, background is equal to the luciferase activity in the presence of the small molecule inhibitor control and the total is signal induced in DMSO wells.

[2] = system: human Notch 3; test: Notch-CBF1 Transactivation Assay (Notch 3); type: cell-based; details: read-out: Notch 3 (IC50); HeLa cells transfected with truncated Notch 3 and CBF1 luciferase reporter; 18 hours; average of N experiments
Source text: as §1, §2, §3, §4

[3] = Human metabolic stability half-life assay; type: in vitro ADME; details: pH 7.4; human liver microsomes, NADPH, 0.5 μM compound, 45-minute time course; read-out: HLM (t1/2, min)
Source text: Metabolic Stability Half-Life Panel

[4] = system: TALL-1; test: Human Tumor Xenograft Models in Mice (TALL-1); type: in vivo
Procedure: Human Tumor Xenograft Models in Mice
Mice were fed food and water ad libitum.
When death occurred, the day of death was recorded.

Row | SMILES | IC50 [1] | IC50 [2] | half-life at 0.5 µM [3] | antitumor activity with oral administration (PO) ([4]; Human Tumor Xenograft Models in mice, oral) | Antitumor Activity in TALL-1 (LCK) BID dosing ([4]; Oral Administration, Dose 10, Schedule BIDx10, LCK = Log Cell Kill, NOD-SCID mice)
1 | Cc1cccc2c1NC(=O)[C@@H](NC(=O)[C@H](CCC(F)(F)F)[C@H](CC1CC(F)(F)C1)C(N)=O)N=C2c1ccccc1 [Example 1, (2R,3S)-3-((3,3-Difluorocyclobutyl)methyl)-N-((3S)-9-methyl-2-oxo-5-phenyl-2,3-dihydro-1H-1,4-benzodiazepin-3-yl)-2-(3,3,3-trifluoropropyl)succinamide] | 3 nM | 2.4 nM | 60 min | showed antitumor activity | 2.7
2 | C[C@@H](C[C@H](C(N)=O)[C@@H](CCC(F)(F)F)C(=O)N[C@H]1N=C(c2ccccc2)c2cccc(F)c2NC1=O)C(F)(F)F [Example 19, (2R,3S)—N-((3S)-9-Fluoro-2-oxo-5-phenyl-2,3-dihydro-1H-1,4-benzodiazepin-3-yl)-3-((2S)-3,3,3-trifluoro-2-methylpropyl)-2-(3,3,3-trifluoropropyl)succinamide] | 2.9 nM | 2.4 nM | 80 min | – | –
3 | NC(=O)[C@@H](CCCF)[C@@H](CCC(F)(F)F)C(=O)N[C@H]1N=C(c2ccccc2)c2cccc(Cl)c2NC1=O [Example 20, (2R,3S)—N-((3S)-9-Chloro-2-oxo-5-phenyl-2,3-dihydro-1H-1,4-benzodiazepin-3-yl)-3-(3-fluoropropyl)-2-(3,3,3-trifluoropropyl)succinamide] | 10.8 nM | 16.5 nM | 107 min | – | –
4 | COc1cccc2c1NC(=O)[C@@H](NC(=O)[C@H](CCC(F)(F)F)[C@H](CCC(C)(F)F)C(N)=O)N=C2c1ccccc1 [Example 21] | 7.5 nM | 13.8 nM | 76 min | – | –
5 | C[C@H](C[C@H](C(N)=O)[C@@H](CCC(F)(F)F)C(=O)N[C@H]1N=C(c2ccccc2)c2cccc(Cl)c2NC1=O)C(F)(F)F [Example 22, (2R,3S)—N-((3S)-9-Chloro-2-oxo-5-phenyl-2,3-dihydro-1H-1,4-benzodiazepin-3-yl)-3-((2R)-3,3,3-trifluoro-2-methylpropyl)-2-(3,3,3-trifluoropropyl)succinamide] | 3.2 nM | 9.3 nM | 117 min | – | –
6 | C[C@@H](C[C@H](C(N)=O)[C@@H](CCC(F)(F)F)C(=O)N[C@H]1N=C(c2ccccc2)c2cccc(Cl)c2NC1=O)C(F)(F)F [Example 23, (2R,3S)—N-((3S)-9-Chloro-2-oxo-5-phenyl-2,3-dihydro-1H-1,4-benzodiazepin-3-yl)-3-((2S)-3,3,3-trifluoro-2-methylpropyl)-2-(3,3,3-trifluoropropyl)succinamide] | 5.1 nM | 3.2 nM | 111 min | – | –
7 | CC(F)(F)CC[C@H](C(N)=O)[C@@H](CCC(F)(F)F)C(=O)N[C@H]1N=C(c2ccccc2)c2cccc(Cl)c2NC1=O [Example 24, (2R,3S)—N-((3S)-9-Chloro-2-oxo-5-phenyl-2,3-dihydro-1H-1,4-benzodiazepin-3-yl)-3-(3,3-difluorobutyl)-2-(3,3,3-trifluoropropyl)succinamide] | 3.9 nM | 5.4 nM | > 120 min | – | –
8 | Cc1cccc2c1NC(=O)[C@@H](NC(=O)[C@H](CCC(F)(F)F)[C@H](CC1(F)CCC1)C(N)=O)N=C2c1ccccc1 [Example 25, (2R,3S)-3-((1-Fluorocyclobutyl)methyl)-N-((3S)-9-methyl-2-oxo-5-phenyl-2,3-dihydro-1H-1,4-benzodiazepin-3-yl)-2-(3,3,3-trifluoropropyl)succinamide] | 3.8 nM | 20.1 nM | 33 min | – | –
